# Test results published in PMC12155096 (International Journal of Molecular Sciences, 2025).
# Biological target: human CYP2D6 (Homo sapiens, UniProt P10635)
# Sequence (P10635 whole entry): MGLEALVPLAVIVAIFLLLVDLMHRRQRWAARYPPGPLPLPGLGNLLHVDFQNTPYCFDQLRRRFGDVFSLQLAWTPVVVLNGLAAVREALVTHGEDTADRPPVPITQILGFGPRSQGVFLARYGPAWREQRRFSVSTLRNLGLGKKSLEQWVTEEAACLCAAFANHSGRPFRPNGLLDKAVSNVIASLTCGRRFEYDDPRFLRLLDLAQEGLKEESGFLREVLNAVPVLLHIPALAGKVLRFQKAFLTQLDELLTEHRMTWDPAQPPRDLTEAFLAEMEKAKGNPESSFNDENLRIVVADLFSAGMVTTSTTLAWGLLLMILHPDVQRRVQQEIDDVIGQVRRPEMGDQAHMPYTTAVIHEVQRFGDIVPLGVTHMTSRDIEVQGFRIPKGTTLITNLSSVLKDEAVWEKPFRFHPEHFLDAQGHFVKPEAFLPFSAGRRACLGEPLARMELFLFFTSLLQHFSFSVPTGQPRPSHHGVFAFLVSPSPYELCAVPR
SMILES,CYP2D6 AC50 (half-maximal activity concentration),AC50 [µM]
"O=S(=O)(O)c1cc(Cl)c(Cl)cc1Cl [2,4,5-Trichlorobenzenesulfonic acid]",Inconclusive,
"CCOC(=O)COc1ccc(Cl)cc1Cl [2,4-D-ethyl ester]",Inconclusive inhibitor,
"O=C([O-])CCCOc1ccc(Cl)cc1Cl.[Na+] [2,4-DB-sodium]",Inactive,
"COc1ccc(C(=O)c2ccc(O)cc2)c(OC)c1 [2,4-Dimethoxy-4'-hydroxy benzophenone]",Inconclusive inhibitor,
CCCC(C)c1ccccc1O (stereo not shown) [2-(1-Methylbutyl)phenol],Inactive,
c1ccc(CCCc2ccccn2)cc1 [2-(3-Phenylpropyl)pyridine],,53.2
Nc1ccccc1S(=O)(=O)c1ccccc1 [2-(Phenylsulfonyl)aniline],Inactive,
CC(C)c1ccc2sc3ccccc3c(=O)c2c1 [2-(Propan-2-yl)-9H-thioxanthen-9-one],,27.5
NS(=O)(=O)c1ccccc1OC(F)(F)F [2-(Trifluoromethoxy)benzenesulfonamide],Inactive,
CC(=O)c1cc2ccccc2s1 [2-Acetylbenzo[b]thiophene],Inactive,
Nc1ccc(Cl)cc1C(=O)c1ccccc1F [2-Amino-5-chloro-2'-fluorobenzophenone],Inactive,
CC(C)NC(=O)c1ccccc1N [2-Amino-N-(1-methylethyl)benzamide],Inactive,
NC(=O)Nc1nc2ccccc2[nH]1 [2-Benzimidazolylurea],,34.2
Brc1nc2ccccc2s1 [2-Bromobenzothiazole],Inactive,
"CCCCN1C(=O)c2ccccc2C1=O [2-Butyl-1H-isoindole-1,3(2H)-dione]",Inactive,
"Cc1cc(O)c(Cl)cc1C [2-Chloro-4,5-dimethylphenol]",Inactive,
CCCCCCCCC(CCCCCC)C(=O)O (stereo not shown) [2-Hexyldecanoic acid],Inactive,

# Biological target: T1, human CYP1A2 (Homo sapiens, UniProt P05177)
# T1 sequence (P05177 1-516): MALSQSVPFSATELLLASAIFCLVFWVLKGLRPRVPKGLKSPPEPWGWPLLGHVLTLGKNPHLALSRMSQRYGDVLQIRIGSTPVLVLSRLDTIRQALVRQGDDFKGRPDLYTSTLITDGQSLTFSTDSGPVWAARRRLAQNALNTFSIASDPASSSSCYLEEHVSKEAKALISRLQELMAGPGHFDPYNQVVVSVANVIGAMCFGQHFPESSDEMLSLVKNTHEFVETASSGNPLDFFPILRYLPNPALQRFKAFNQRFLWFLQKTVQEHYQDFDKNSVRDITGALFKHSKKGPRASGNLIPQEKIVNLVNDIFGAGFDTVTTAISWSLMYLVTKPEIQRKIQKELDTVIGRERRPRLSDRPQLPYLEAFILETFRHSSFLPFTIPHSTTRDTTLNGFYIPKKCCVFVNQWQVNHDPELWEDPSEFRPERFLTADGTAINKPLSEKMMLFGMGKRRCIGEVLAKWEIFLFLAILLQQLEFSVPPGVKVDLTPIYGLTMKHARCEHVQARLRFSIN
SMILES,CYP1A2 AC50 (half-maximal activity concentration),AC50 [µM]
"O=S(=O)(O)c1cc(Cl)c(Cl)cc1Cl [2,4,5-Trichlorobenzenesulfonic acid]",Inconclusive inhibitor,
"CCOC(=O)COc1ccc(Cl)cc1Cl [2,4-D-ethyl ester]",,30.8
"O=C([O-])CCCOc1ccc(Cl)cc1Cl.[Na+] [2,4-DB-sodium]",Inactive,
"COc1ccc(C(=O)c2ccc(O)cc2)c(OC)c1 [2,4-Dimethoxy-4'-hydroxy benzophenone]",,49.2
CCCC(C)c1ccccc1O (stereo not shown) [2-(1-Methylbutyl)phenol],,56.6
c1ccc(CCCc2ccccn2)cc1 [2-(3-Phenylpropyl)pyridine],,31.2
Nc1ccccc1S(=O)(=O)c1ccccc1 [2-(Phenylsulfonyl)aniline],,50.5
CC(C)c1ccc2sc3ccccc3c(=O)c2c1 [2-(Propan-2-yl)-9H-thioxanthen-9-one],,7.68
NS(=O)(=O)c1ccccc1OC(F)(F)F [2-(Trifluoromethoxy)benzenesulfonamide],,51.9
CC(=O)c1cc2ccccc2s1 [2-Acetylbenzo[b]thiophene],,6.92
Nc1ccc(Cl)cc1C(=O)c1ccccc1F [2-Amino-5-chloro-2'-fluorobenzophenone],,14.4
CC(C)NC(=O)c1ccccc1N [2-Amino-N-(1-methylethyl)benzamide],,51.1
NC(=O)Nc1nc2ccccc2[nH]1 [2-Benzimidazolylurea],,47.2
Brc1nc2ccccc2s1 [2-Bromobenzothiazole],,11.1
"CCCCN1C(=O)c2ccccc2C1=O [2-Butyl-1H-isoindole-1,3(2H)-dione]",,2.03
"Cc1cc(O)c(Cl)cc1C [2-Chloro-4,5-dimethylphenol]",,27.7
CCCCCCCCC(CCCCCC)C(=O)O (stereo not shown) [2-Hexyldecanoic acid],Inactive,

# Biological target: CYP3A4 (Homo sapiens, UniProt P08684)
# Sequence (P08684 whole entry): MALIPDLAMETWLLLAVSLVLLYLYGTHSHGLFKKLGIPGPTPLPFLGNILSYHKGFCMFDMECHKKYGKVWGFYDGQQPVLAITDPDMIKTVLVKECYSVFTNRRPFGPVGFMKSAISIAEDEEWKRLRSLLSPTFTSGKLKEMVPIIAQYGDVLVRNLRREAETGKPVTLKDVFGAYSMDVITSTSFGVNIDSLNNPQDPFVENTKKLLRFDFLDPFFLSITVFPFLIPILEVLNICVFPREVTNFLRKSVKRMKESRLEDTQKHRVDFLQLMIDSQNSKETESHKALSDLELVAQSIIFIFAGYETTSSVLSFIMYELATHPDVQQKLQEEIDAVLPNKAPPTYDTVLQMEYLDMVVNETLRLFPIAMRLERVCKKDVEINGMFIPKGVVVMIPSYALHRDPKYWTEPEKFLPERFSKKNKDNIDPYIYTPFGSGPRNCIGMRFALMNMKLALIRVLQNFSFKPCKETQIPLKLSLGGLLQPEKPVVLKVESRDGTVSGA
SMILES,AC50 [µM],CYP3A4 AC50 (half-maximal activity concentration)
"O=S(=O)(O)c1cc(Cl)c(Cl)cc1Cl [2,4,5-Trichlorobenzenesulfonic acid]",48.3,
"CCOC(=O)COc1ccc(Cl)cc1Cl [2,4-D-ethyl ester]",17.1,
"O=C([O-])CCCOc1ccc(Cl)cc1Cl.[Na+] [2,4-DB-sodium]",46.2,
"COc1ccc(C(=O)c2ccc(O)cc2)c(OC)c1 [2,4-Dimethoxy-4'-hydroxy benzophenone]",31.7,
CCCC(C)c1ccccc1O (stereo not shown) [2-(1-Methylbutyl)phenol],,Inactive
c1ccc(CCCc2ccccn2)cc1 [2-(3-Phenylpropyl)pyridine],8.01,
Nc1ccccc1S(=O)(=O)c1ccccc1 [2-(Phenylsulfonyl)aniline],71,
CC(C)c1ccc2sc3ccccc3c(=O)c2c1 [2-(Propan-2-yl)-9H-thioxanthen-9-one],7.71,
NS(=O)(=O)c1ccccc1OC(F)(F)F [2-(Trifluoromethoxy)benzenesulfonamide],,Inactive
CC(=O)c1cc2ccccc2s1 [2-Acetylbenzo[b]thiophene],24.6,
Nc1ccc(Cl)cc1C(=O)c1ccccc1F [2-Amino-5-chloro-2'-fluorobenzophenone],8.75,
CC(C)NC(=O)c1ccccc1N [2-Amino-N-(1-methylethyl)benzamide],35.7,
NC(=O)Nc1nc2ccccc2[nH]1 [2-Benzimidazolylurea],47.5,
Brc1nc2ccccc2s1 [2-Bromobenzothiazole],45.5,
"CCCCN1C(=O)c2ccccc2C1=O [2-Butyl-1H-isoindole-1,3(2H)-dione]",25.6,
"Cc1cc(O)c(Cl)cc1C [2-Chloro-4,5-dimethylphenol]",,Inactive
CCCCCCCCC(CCCCCC)C(=O)O (stereo not shown) [2-Hexyldecanoic acid],65.1,

# Biological target: human CYP2C9 (Homo sapiens, UniProt P11712)
# Sequence (P11712 whole entry): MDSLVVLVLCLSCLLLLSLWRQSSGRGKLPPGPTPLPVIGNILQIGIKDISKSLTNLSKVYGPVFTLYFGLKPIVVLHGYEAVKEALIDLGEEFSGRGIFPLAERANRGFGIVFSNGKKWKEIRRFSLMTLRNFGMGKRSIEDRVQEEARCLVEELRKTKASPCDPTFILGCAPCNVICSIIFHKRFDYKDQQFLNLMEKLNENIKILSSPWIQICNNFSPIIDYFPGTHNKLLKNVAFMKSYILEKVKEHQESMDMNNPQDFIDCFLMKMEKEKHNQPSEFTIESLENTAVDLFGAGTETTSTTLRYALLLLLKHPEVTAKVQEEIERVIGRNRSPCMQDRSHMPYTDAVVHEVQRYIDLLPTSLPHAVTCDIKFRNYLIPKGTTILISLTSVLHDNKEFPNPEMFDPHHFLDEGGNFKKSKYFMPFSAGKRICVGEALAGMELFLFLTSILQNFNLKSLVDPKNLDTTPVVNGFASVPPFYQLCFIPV
SMILES,AC50 [µM],CYP2C9 AC50 (half-maximal activity concentration)
"O=S(=O)(O)c1cc(Cl)c(Cl)cc1Cl [2,4,5-Trichlorobenzenesulfonic acid]",33,
"CCOC(=O)COc1ccc(Cl)cc1Cl [2,4-D-ethyl ester]",55.5,
"O=C([O-])CCCOc1ccc(Cl)cc1Cl.[Na+] [2,4-DB-sodium]",60.6,
"COc1ccc(C(=O)c2ccc(O)cc2)c(OC)c1 [2,4-Dimethoxy-4'-hydroxy benzophenone]",0.64,
CCCC(C)c1ccccc1O (stereo not shown) [2-(1-Methylbutyl)phenol],49,
c1ccc(CCCc2ccccn2)cc1 [2-(3-Phenylpropyl)pyridine],33.1,
Nc1ccccc1S(=O)(=O)c1ccccc1 [2-(Phenylsulfonyl)aniline],8.25,
CC(C)c1ccc2sc3ccccc3c(=O)c2c1 [2-(Propan-2-yl)-9H-thioxanthen-9-one],15.6,
NS(=O)(=O)c1ccccc1OC(F)(F)F [2-(Trifluoromethoxy)benzenesulfonamide],62.1,
CC(=O)c1cc2ccccc2s1 [2-Acetylbenzo[b]thiophene],,Inactive
Nc1ccc(Cl)cc1C(=O)c1ccccc1F [2-Amino-5-chloro-2'-fluorobenzophenone],16.1,
CC(C)NC(=O)c1ccccc1N [2-Amino-N-(1-methylethyl)benzamide],,Inactive
NC(=O)Nc1nc2ccccc2[nH]1 [2-Benzimidazolylurea],60.5,
Brc1nc2ccccc2s1 [2-Bromobenzothiazole],,Inactive
"CCCCN1C(=O)c2ccccc2C1=O [2-Butyl-1H-isoindole-1,3(2H)-dione]",50.6,
"Cc1cc(O)c(Cl)cc1C [2-Chloro-4,5-dimethylphenol]",34.3,
CCCCCCCCC(CCCCCC)C(=O)O (stereo not shown) [2-Hexyldecanoic acid],26.2,

# Biological target: human CYP2C19 (Homo sapiens, UniProt P33261)
# Sequence (P33261 whole entry): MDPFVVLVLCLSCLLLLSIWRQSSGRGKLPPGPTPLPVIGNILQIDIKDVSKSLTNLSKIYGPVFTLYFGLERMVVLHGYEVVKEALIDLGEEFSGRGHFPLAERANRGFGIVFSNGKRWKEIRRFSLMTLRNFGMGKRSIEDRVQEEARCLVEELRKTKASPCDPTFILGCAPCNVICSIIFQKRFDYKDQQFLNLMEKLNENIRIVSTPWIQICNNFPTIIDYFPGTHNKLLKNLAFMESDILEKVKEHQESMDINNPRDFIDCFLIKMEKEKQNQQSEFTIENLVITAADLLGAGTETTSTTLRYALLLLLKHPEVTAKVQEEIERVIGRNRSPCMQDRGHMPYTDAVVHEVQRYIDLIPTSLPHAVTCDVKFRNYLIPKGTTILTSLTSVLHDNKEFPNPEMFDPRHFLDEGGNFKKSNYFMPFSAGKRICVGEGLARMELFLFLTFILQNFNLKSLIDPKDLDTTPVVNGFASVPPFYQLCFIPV
SMILES,CYP2C19 AC50 (half-maximal activity concentration),AC50 [µM]
"O=S(=O)(O)c1cc(Cl)c(Cl)cc1Cl [2,4,5-Trichlorobenzenesulfonic acid]",Inconclusive inhibitor,
"CCOC(=O)COc1ccc(Cl)cc1Cl [2,4-D-ethyl ester]",,26.8
"O=C([O-])CCCOc1ccc(Cl)cc1Cl.[Na+] [2,4-DB-sodium]",Inconclusive inhibitor,
"COc1ccc(C(=O)c2ccc(O)cc2)c(OC)c1 [2,4-Dimethoxy-4'-hydroxy benzophenone]",,6.52
CCCC(C)c1ccccc1O (stereo not shown) [2-(1-Methylbutyl)phenol],,10.9
c1ccc(CCCc2ccccn2)cc1 [2-(3-Phenylpropyl)pyridine],,7.19
Nc1ccccc1S(=O)(=O)c1ccccc1 [2-(Phenylsulfonyl)aniline],,17.8
CC(C)c1ccc2sc3ccccc3c(=O)c2c1 [2-(Propan-2-yl)-9H-thioxanthen-9-one],,13.1
NS(=O)(=O)c1ccccc1OC(F)(F)F [2-(Trifluoromethoxy)benzenesulfonamide],Inconclusive inhibitor,
CC(=O)c1cc2ccccc2s1 [2-Acetylbenzo[b]thiophene],Inactive,
Nc1ccc(Cl)cc1C(=O)c1ccccc1F [2-Amino-5-chloro-2'-fluorobenzophenone],,11.9
CC(C)NC(=O)c1ccccc1N [2-Amino-N-(1-methylethyl)benzamide],,3.36
NC(=O)Nc1nc2ccccc2[nH]1 [2-Benzimidazolylurea],,47.2
Brc1nc2ccccc2s1 [2-Bromobenzothiazole],Inactive,
"CCCCN1C(=O)c2ccccc2C1=O [2-Butyl-1H-isoindole-1,3(2H)-dione]",,26.6
"Cc1cc(O)c(Cl)cc1C [2-Chloro-4,5-dimethylphenol]",,61.8
CCCCCCCCC(CCCCCC)C(=O)O (stereo not shown) [2-Hexyldecanoic acid],,34.3
